Results published in paper PMC2174402 (Environmental Health Perspectives, 2007).
Values joined by “and” are separate entries in the source; they are usually repeats but may differ in a detail not shown here. Identical values can stand only once. Like-named read-outs stand apart in the source and are kept apart here. Marks after values point to notes of the source that are not given here.

How the values were obtained:
CHO cells = experiment: Cytotoxicity in the AR assay; type: cell-based, Chinese hamster; conditions: for Cytotox (M), AR assay: pSVAR13
Hepa1.12cR cells = experiment: Cell cytotoxicity / proliferation for the AhR-CALUX assay
JEG-3 cells = experiment: Cell cytotoxicity for the aromatase assay; type: cell-based, human
[1] = biological target: aryl hydrocarbon receptor (AhR) (Mus musculus, UniProt P30561); experiment: AhR-CALUX
aromatase (CYP19) = biological target: T1, aromatase (CYP19) (Homo sapiens, UniProt P11511); experiment: Aromatase activity in JEG-3 choriocarcinoma cells; type: cell-based; conditions: for LOEC, aromatase (inhibited activity) / MOEC, aromatase (inhibited activity) / concentration (range) of significant aromatase inhibition: 18 hr exposure; for Maximum % (maximum down-regulation / maximum inhibition, MI), aromatase: control 10 nM 4-AD set to 100%, at the MOEC
T1 sequence (P11511 1-503): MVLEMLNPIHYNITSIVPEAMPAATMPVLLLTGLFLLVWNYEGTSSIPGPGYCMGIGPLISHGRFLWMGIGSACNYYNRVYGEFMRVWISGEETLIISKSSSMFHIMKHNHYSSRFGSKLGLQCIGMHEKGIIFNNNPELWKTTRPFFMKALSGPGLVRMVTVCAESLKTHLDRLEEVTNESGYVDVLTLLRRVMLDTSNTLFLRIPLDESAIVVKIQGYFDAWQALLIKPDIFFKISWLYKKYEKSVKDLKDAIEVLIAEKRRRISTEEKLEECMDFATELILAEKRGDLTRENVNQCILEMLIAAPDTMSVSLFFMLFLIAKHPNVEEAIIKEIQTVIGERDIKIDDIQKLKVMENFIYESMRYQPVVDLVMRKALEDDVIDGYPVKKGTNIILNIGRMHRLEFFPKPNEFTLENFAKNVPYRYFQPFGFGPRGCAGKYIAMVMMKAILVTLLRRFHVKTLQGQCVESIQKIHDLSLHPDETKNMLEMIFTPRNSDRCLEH

[2] = biological target: T2, human androgen receptor (AR) (Homo sapiens, UniProt P10275); experiment: cell-based; type: cell-based
T2 sequence (P10275 1-920): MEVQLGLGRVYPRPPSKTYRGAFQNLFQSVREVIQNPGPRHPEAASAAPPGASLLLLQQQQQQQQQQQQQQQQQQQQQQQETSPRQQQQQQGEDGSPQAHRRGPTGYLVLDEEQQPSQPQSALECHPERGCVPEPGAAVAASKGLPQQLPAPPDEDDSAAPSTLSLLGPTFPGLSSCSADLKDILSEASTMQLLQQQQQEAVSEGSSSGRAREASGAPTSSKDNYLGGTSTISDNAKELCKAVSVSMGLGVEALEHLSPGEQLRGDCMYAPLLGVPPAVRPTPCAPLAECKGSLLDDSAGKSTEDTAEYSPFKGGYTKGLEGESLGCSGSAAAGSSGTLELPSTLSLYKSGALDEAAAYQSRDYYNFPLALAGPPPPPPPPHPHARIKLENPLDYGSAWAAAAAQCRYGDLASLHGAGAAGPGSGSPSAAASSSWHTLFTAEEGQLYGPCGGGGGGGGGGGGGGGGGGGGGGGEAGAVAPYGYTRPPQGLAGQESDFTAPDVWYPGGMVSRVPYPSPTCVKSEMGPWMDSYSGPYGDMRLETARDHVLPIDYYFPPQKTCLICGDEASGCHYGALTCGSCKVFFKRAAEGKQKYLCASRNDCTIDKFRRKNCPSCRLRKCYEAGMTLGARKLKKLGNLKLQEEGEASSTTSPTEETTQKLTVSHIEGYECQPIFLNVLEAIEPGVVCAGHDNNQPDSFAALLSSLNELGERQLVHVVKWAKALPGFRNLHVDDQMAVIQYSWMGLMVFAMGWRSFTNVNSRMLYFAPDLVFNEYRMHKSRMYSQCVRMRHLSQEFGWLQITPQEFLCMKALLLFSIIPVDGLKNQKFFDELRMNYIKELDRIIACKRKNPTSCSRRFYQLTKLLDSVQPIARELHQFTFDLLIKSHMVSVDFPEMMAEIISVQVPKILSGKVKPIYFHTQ

[3] = biological target: T3, human estrogen receptor (ER) (Homo sapiens, UniProt P03372); experiment: cell-based; type: cell-based; conditions: for LOEC (lowest effect concentration), ER / MOEC (maximal effect concentration), ER: 24 hr
T3 sequence (P03372 1-595): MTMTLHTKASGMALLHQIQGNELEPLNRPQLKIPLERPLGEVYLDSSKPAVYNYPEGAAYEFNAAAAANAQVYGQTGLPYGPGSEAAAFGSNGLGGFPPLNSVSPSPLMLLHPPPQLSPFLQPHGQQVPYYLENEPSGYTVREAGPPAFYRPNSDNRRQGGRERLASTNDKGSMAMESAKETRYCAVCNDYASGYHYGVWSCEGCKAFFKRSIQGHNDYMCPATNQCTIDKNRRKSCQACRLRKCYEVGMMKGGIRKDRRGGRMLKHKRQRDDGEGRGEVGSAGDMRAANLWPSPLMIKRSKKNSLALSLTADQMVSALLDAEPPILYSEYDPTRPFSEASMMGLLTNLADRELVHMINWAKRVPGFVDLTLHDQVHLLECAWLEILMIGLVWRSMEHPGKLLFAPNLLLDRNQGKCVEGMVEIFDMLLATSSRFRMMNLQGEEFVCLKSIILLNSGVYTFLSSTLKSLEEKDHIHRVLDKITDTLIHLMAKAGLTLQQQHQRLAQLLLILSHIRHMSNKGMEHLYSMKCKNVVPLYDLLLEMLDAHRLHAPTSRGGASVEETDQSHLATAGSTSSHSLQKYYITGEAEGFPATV

[4] = chemical alone, Hepa1.12cR cells
[5] = co-exposure with 0.1 nM R1881, CHO cells

Chain of aryl hydrocarbon receptor (AhR) (P30561 10-805 limits assumed): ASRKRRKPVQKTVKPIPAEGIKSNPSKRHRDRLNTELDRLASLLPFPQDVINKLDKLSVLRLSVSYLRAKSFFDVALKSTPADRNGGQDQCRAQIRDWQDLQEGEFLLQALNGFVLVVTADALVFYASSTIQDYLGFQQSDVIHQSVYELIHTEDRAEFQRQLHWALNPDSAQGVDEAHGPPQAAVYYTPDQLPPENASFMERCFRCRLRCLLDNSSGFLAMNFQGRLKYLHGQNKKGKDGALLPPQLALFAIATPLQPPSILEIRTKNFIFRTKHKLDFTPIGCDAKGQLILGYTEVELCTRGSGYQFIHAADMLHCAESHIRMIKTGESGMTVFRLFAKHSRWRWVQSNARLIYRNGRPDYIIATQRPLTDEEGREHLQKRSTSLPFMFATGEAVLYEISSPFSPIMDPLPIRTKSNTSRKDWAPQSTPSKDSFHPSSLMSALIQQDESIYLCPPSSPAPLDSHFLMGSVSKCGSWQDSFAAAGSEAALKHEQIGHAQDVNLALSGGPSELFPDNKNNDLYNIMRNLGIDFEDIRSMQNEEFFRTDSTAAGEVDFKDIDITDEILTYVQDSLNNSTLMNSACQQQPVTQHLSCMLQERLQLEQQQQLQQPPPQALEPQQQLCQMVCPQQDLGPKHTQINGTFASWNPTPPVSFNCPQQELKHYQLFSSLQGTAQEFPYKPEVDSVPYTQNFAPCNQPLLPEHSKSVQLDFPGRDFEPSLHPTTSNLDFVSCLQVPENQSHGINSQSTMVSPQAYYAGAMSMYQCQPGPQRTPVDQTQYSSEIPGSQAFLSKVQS
Chain of aryl hydrocarbon receptor (AhR) (P53762 whole entry partner): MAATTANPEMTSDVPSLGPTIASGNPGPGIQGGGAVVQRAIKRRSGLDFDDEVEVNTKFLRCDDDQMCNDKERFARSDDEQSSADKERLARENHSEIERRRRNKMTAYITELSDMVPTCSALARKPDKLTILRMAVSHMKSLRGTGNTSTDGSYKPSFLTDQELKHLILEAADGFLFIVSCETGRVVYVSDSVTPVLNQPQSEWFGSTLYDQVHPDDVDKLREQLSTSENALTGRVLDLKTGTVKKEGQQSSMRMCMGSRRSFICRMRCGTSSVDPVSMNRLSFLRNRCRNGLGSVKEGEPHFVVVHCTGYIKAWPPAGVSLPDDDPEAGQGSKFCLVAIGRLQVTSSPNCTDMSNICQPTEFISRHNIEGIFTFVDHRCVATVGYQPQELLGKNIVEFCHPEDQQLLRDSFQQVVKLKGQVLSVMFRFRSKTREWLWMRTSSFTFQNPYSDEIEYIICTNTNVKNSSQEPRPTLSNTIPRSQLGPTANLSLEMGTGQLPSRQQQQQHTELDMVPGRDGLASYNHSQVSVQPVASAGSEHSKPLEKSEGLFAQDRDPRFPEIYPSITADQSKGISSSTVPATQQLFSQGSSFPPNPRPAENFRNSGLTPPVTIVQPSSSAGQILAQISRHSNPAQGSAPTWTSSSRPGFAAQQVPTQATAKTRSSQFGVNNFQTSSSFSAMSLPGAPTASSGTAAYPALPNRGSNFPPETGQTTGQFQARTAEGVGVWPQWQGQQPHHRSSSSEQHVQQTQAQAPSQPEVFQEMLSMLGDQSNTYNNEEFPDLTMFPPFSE

SMILES	Cytotox (M), AR assay (CHO cells)	Cytotox (M), AhR assay (Hepa1.12cR cells)	Cytotox (M), ER assay (MVLN cells)	LOEC, AhR (increased activity) [1, 4]	LOEC, aromatase (inhibited activity) (aromatase (CYP19); JEG-3 cells)	MOEC, aromatase (inhibited activity) (aromatase (CYP19); JEG-3 cells)	concentration (range) of significant aromatase inhibition (aromatase (CYP19); JEG-3 cells)	Maximum % (maximum down-regulation / maximum inhibition, MI), aromatase (aromatase (CYP19))	concentrations of cytotoxicity, AR assay (CHO cells)	LOEC (lowest effect concentration), ER ([3]; chemical alone, MVLN cells)	MOEC (maximal effect concentration), ER ([3]; chemical alone, MVLN cells)	further results
CCCCCCCCc1ccc(O)cc1 [nOP, 4-n-octylphenol]	> 2e-05 M	> 10^−4 M	5e-05 M									Cytotox (M), aromatase assay (JEG-3 cells): 10^−4 M
Clc1cc2c(cc1Cl)Oc1cc(Cl)c(Cl)cc1O2 [TCDD, 2,3,7,8-tetrachlorodibenzo-p-dioxin, reference compound]				0.002 nM								AhR-CALUX activity relative to solvent control ([1]; 60 pM TCDD alone, 0.1% DMSO set to 1, mean ± SD): 14.84 ± 6.26 and 13.89 ± 7.32; MOEC, AhR (increased activity) [1, 4]: 10 nM; REP (relative potency), AhR ([1]; relative to TCDD): 1
CC(C)(c1ccc(O)cc1)c1ccc(O)cc1 [BPA, Bisphenol A]	> 4e-05 M	> 10^−4 M			100000 nM	100 µM	10^−4 M	59%	> 40 µM	100 nM	10 µM	concentration of decreased TCDD-induced AhR activity [1]: 10^−4 M; concentration (range) of decreased AhR activity, alone ([1]; chemical alone): 5 × 10^−5 to 10^−4 M; LOEC, AhR (inhibited activity) ([1]; inhibited activity): 5 × 10^−5 ^d M; IC50 [2]: 1000 nM; concentration range of significant antiandrogenic effect ([2]; co-exposure with 0.1 nM R1881): 0.60 to 20 µM; LOEC, AR (inhibited activity) [2, 5]: 600 nM; MOEC, AR (inhibited activity) [2, 5]: 20 µM; Maximum % (maximum down-regulation / maximum inhibition, MI), AR ([2]; control inducer 0.1 nM R1881 set to 100%): 90%; response on co-treatment with 25 pM E2 at 50 μM [3]: significant decreased response; concentration range of ER-mediated (estrogenic) response ([3]; chemical alone, MVLN cells): 10^−8 to 5 × 10^−5 M
C[C@]12CCC(=O)C(O)=C1CC[C@@H]1[C@@H]2CC[C@]2(C)C(=O)CC[C@@H]12 [4-AOD, 4-androsten-4-ol-3,17-dione, reference compound]					1 nM	100 µM		100%				EC50 (aromatase (CYP19)): 6 nM; IC50 (aromatase (CYP19)): 6 nM; EC100 of aromatase inhibitor control (aromatase (CYP19); JEG-3 cells): 10 µM; REP (relative potency), aromatase (aromatase (CYP19); REP-aromatase = LOEC 4-AOD/LOEC test compound): 1
CCCCCCCCCc1ccc(O)cc1 [nNP, 4-n-nonylphenol]	> 4e-05 M		2.5e-05 M	50 nM	1 nM	10 µM	10^−9–10^−5 M	71%	> 40 µM	10 nM	10 µM	concentration of decreased TCDD-induced AhR activity ([1]; co-treatment with TCDD-EC50 (60 pM)): 10^−4 M; concentration at which cytotoxicity was observed, ER assay (MVLN cells): 25 µM; EC50 [3]: 8900 nM; concentration giving further increase of the 25 pM E2-induced activity level [3]: 5 × 10^−6 M
